Assay [1] deals with A549. Kind of assay: Ratio of Gemcitabine IC50 to Compound IC50 for human A549 cells after 48 hrs by SRB assay. Type of assay: functional. For orientation: Sulforhodamine B stains cellular protein and so reports cell mass.
The subject of assay [2] is T-24. Description: Ratio of Gemcitabine IC50 to Compound IC50 for human T24 cells after 48 hrs by SRB assay. Type of assay: functional.
The subject of assay [3] is A549. Kind of assay: Cytotoxicity against human A549 cells after 48 hrs by SRB assay. Type of assay: functional, cell-based. The conditions noted are these: for IC50: A549, 48 h.
In assay [4] the test system is MRC5. Kind of assay: Cytotoxicity against human MRC5 cells after 48 hrs by SRB assay. Type of assay: functional, cell-based. The note with it: for IC50: MRC5, 48 h.
The subject of assay [5] is A549. Kind of assay: Induction of H2O2 level in human A549 cells at 1 uM after 30 mins by flow cytometry. Type of assay: functional, cell-based. A general note: A flow cytometer gives signals particle by particle.
For assay [6], the system named is MRC5. Description: Ratio of Gemcitabine IC50 to Compound IC50 for human MRC5 cells after 48 hrs by SRB assay. Type of assay: functional.
The test system of assay [7] is T-24. Kind of assay: (§1) Cytotoxicity against human T24 cells after 48 hrs by SRB assay. Type of assay: functional, cell-based.
Assay [8] is described as follows: as §1. Type of assay: functional, cell-based. The note with it: T-24, 48 h.
The subject of assay [9] is MRC5. Kind of assay: Cytotoxicity against human MRC5 cells treated at LA + compound sequent. LA for 24 hrs), LA + GEM (24 hrs additional, total 48 hrs) 5:1 alpha-lipoic acid to compound ratio after 48 hrs by SRB assay in presence of alpha-lipoic acid. Type of assay: functional, cell-based.
Assay [10] deals with MRC5. Kind of assay: Cytotoxicity against human MRC5 cells treated at LA + compound sequent. compound for 24 hrs, LA + compound for 24 hrs additional, total 48 hrs 2:1 and 5:1 alpha-lipoic acid to compound ratio after 48 hrs by SRB assay in presence of alpha-lipoic acid. Type of assay: functional, cell-based.
Assay [11] deals with MRC5. Kind of assay: Cytotoxicity against human MRC5 cells assessed as dose reduction index ratio treated at sequential combination at 5:1 alpha-lipoic acid to compound ratio after 48 hrs by SRB assay in presence of alpha-lipoic acid. Type of assay: functional.
In assay [12] the test system is A549. Kind of assay: Cytotoxicity against human A549 cells treated at LA + compound sequent. LA for 24 hrs), LA + GEM (24 hrs additional, total 48 hrs) 2:1 alpha-lipoic acid to compound ratio after 48 hrs by SRB assay in presence of alpha-lipoic acid. Type of assay: functional, cell-based.
Assay [13] deals with MRC5. Description: Cytotoxicity against human MRC5 cells treated at LA + compound sequent. LA for 24 hrs), LA + GEM (24 hrs additional, total 48 hrs) 2:1 alpha-lipoic acid to compound ratio after 48 hrs by SRB assay in presence of alpha-lipoic acid. Type of assay: functional, cell-based.
Assay [14] in a line: Cytotoxicity against human T24 cells treated at LA + compound sequent. compound for 24 hrs, LA + compound for 24 hrs additional, total 48 hrs 2:1 and 5:1 alpha-lipoic acid to compound ratio after 48 hrs by SRB assay in presence of alpha-lipoic acid. Type of assay: functional, cell-based. The conditions noted are these: T-24.
In assay [15] the test system is A549. Description: Cytotoxicity against human A549 cells assessed as dose reduction index ratio treated at sequential combination at 5:1 alpha-lipoic acid to compound ratio after 48 hrs by SRB assay in presence of alpha-lipoic acid. Type of assay: functional.
The test system of assay [16] is MRC5. Kind of assay: Cytotoxicity against human MRC5 cells assessed as dose reduction index ratio treated at simultaneous combination at 2:1 alpha-lipoic acid to compound ratio after 48 hrs by SRB assay in presence of alpha-lipoic acid. Type of assay: functional.
The subject of assay [17] is A549. Description: Cytotoxicity against human A549 cells assessed as inhibition fraction treated at 2:1 alpha-lipoic acid to compound ratio after 48 hrs by SRB assay in presence of alpha-lipoic acid. Type of assay: functional.
The test system of assay [18] is A549. Description: Cytotoxicity against human A549 cells assessed as dose reduction index ratio treated at sequential combination at 2:1 alpha-lipoic acid to compound ratio after 48 hrs by SRB assay in presence of alpha-lipoic acid. Type of assay: functional.
The test system of assay [19] is MRC5. Kind of assay: Cytotoxicity against human MRC5 cells assessed as dose reduction index ratio treated at sequential combination at 2:1 alpha-lipoic acid to compound ratio after 48 hrs by SRB assay in presence of alpha-lipoic acid. Type of assay: functional.
Assay [20] has as its system A549. Kind of assay: Cytotoxicity against human A549 cells assessed as combination index treated at sequential combination LA + compound sequent. compound for 24 hrs, LA + compound for 24 hrs additional, total 48 hrs 2:1 and 5:1 alpha-lipoic acid to compound ratio after 48 hrs by SRB assay in presence of alpha-lipoic acid. Type of assay: functional.
For assay [21], the system named is A549. Description: Cytotoxicity against human A549 cells assessed as combination index treated at 5:1 alpha-lipoic acid to compound ratio after 48 hrs by SRB assay in presence of alpha-lipoic acid. Type of assay: functional.
Assay [22] can be described thus: Cytotoxicity against human T24 cells treated at 2:1 and 5:1 alpha-lipoic acid to compound ratio after 48 hrs by SRB assay in presence of alpha-lipoic acid. Type of assay: functional, cell-based. The conditions noted are these: T-24, 48 h.
Assay [23] concerns A549. Kind of assay: Cytotoxicity against human A549 cells assessed as combination index treated at 2:1 alpha-lipoic acid to compound ratio after 48 hrs by SRB assay in presence of alpha-lipoic acid. Type of assay: functional.
Assay [24] has as its system A549. Description: Cytotoxicity against human A549 cells treated at 2:1 and 5:1 alpha-lipoic acid to compound ratio after 48 hrs by SRB assay in presence of alpha-lipoic acid. Type of assay: functional, cell-based. The conditions noted are these: A549, 48 h.
For assay [25], the system named is A549. Kind of assay: Cytotoxicity against human A549 cells treated at LA + compound sequent. LA for 24 hrs), LA + GEM (24 hrs additional, total 48 hrs) 5:1 alpha-lipoic acid to compound ratio after 48 hrs by SRB assay in presence of alpha-lipoic acid. Type of assay: functional, cell-based.
Assay [26] deals with A549. Kind of assay: Cytotoxicity against human A549 cells assessed as dose reduction index ratio treated at simultaneous combination at 5:1 alpha-lipoic acid to compound ratio after 48 hrs by SRB assay in presence of alpha-lipoic acid. Type of assay: functional.
In assay [27] the test system is A549. Description: Cytotoxicity against human A549 cells treated at LA + compound sequent. compound for 24 hrs, LA + compound for 24 hrs additional, total 48 hrs 2:1 and 5:1 alpha-lipoic acid to compound ratio after 48 hrs by SRB assay in presence of alpha-lipoic acid. Type of assay: functional, cell-based.
Assay [28] is described as follows: Cytotoxicity against human T24 cells treated at LA + compound sequent. LA for 24 hrs), LA + GEM (24 hrs additional, total 48 hrs) 5:1 alpha-lipoic acid to compound ratio after 48 hrs by SRB assay in presence of alpha-lipoic acid. The conditions noted are these: T-24. Type of assay: functional, cell-based.
In assay [29] the test system is A549. Kind of assay: Cytotoxicity against human A549 cells assessed as inhibition fraction treated at sequential combination LA + compound sequent. compound for 24 hrs, LA + compound for 24 hrs additional, total 48 hrs 2:1 and 5:1 alpha-lipoic acid to compound ratio after 48 hrs by SRB assay in presence of alpha-lipoic acid. Type of assay: functional.
The subject of assay [30] is A549. Kind of assay: Induction of H2O2 level in human A549 cells at 1 uM after 5 to 30 mins by flow cytometry. Type of assay: functional, cell-based.
Assay [31] has as its system MRC5. Description: Cytotoxicity against human MRC5 cells assessed as dose reduction index ratio treated at simultaneous combination at 5:1 alpha-lipoic acid to compound ratio after 48 hrs by SRB assay in presence of alpha-lipoic acid. Type of assay: functional.
The subject of assay [32] is A549. Description: Cytotoxicity against human A549 cells assessed as inhibition fraction treated at 5:1 alpha-lipoic acid to compound ratio after 48 hrs by SRB assay in presence of alpha-lipoic acid. Type of assay: functional.
A short description of assay [33]: Cytotoxicity against human T24 cells treated at LA + compound sequent. LA for 24 hrs), LA + GEM (24 hrs additional, total 48 hrs) 2:1 alpha-lipoic acid to compound ratio after 48 hrs by SRB assay in presence of alpha-lipoic acid. Type of assay: functional, cell-based. The note with it: T-24.
Assay [34] relates to MRC5. Kind of assay: Cytotoxicity against human MRC5 cells treated at 2:1 and 5:1 alpha-lipoic acid to compound ratio after 48 hrs by SRB assay in presence of alpha-lipoic acid. Type of assay: functional, cell-based. The note with it: MRC5, 48 h.
Assay [35] relates to A549. Description: Cytotoxicity against human A549 cells assessed as dose reduction index ratio treated at simultaneous combination at 0.6 fraction inhibition after 48 hrs by SRB assay in presence of alpha-lipoic acid. Type of assay: functional.
The subject of assay [36] is A549. Kind of assay: Cytotoxicity against human A549 cells assessed as dose reduction index ratio treated at sequential combination at 5:1 compound to GEM ratio after 48 hrs by SRB assay in presence of GEM. Type of assay: functional.
The subject of assay [37] is A549. Description: Cytotoxicity against human A549 cells assessed as dose reduction index ratio treated at simultaneous combination at 0.8 fraction inhibition after 48 hrs by SRB assay in presence of alpha-lipoic acid. Type of assay: functional.
Assay [38] concerns A549. Description: Cytotoxicity against human A549 cells assessed as inhibition fraction treated at 5:1 compound to GEM ratio after 48 hrs by SRB assay in presence of GEM. Type of assay: functional.
For assay [39], the system named is A549. Kind of assay: Cytotoxicity against human A549 cells assessed as dose reduction index ratio treated at sequential combination at 2:1 compound to GEM ratio after 48 hrs by SRB assay in presence of GEM. Type of assay: functional.
The subject of assay [40] is A549. Description: Induction of H2O2 level in human A549 cells at 1 uM after 5 mins by flow cytometry. Type of assay: functional, cell-based.
Assay [41] relates to A549. Kind of assay: Cytotoxicity against human A549 cells assessed as inhibition fraction treated at sequential combination LA + compound sequent. compound for 24 hrs, LA + compound for 24 hrs additional, total 48 hrs 2:1 and 5:1 compound to GEM ratio after 48 hrs by SRB assay in presence of GEM. Type of assay: functional.
In assay [42] the test system is A549. Kind of assay: Cytotoxicity against human A549 cells assessed as inhibition fraction treated at 2:1 compound to GEM ratio after 48 hrs by SRB assay in presence of GEM. Type of assay: functional.

Experimental findings from ChEMBL document CHEMBL3421589, “Regioselective chemical and rapid enzymatic synthesis of a novel redox – Antiproliferative molecular hybrid” (Eur J Med Chem, 2015) are described below.

Structures are written as SMILES. Activity calls are given as the source filed them. The rule behind the calls is not given here.

In the case of `Nc1ccn([C@@H]2O[C@H](COC(=O)CCCC[C@@H]3CCSS3)[C@@H](O)C2(F)F)c(=O)n1`, the Ratio in the assay on A549 [1] is given as 1.54; in the assay on T-24 [2], 1.3; in the assay on MRC5 [6], 1.24. The inhibition entry in the assay with A549 [3], in the assay on MRC5 [4] and with T-24 [7] was “Dose-dependent effect” throughout. Also, the 50% inhibitory concentration (IC50) (commonly the concentration at which inhibition is half-maximal) was < 4.4 nM in the assay with A549 [3], 5 nM in the assay on MRC5 [4] and 5.3 nM in assay [8]. In the assay with A549 [5], the result was Active.

`Nc1ccn([C@@H]2O[C@H](CO)[C@@H](O)C2(F)F)c(=O)n1` [GEMCITABINE]: the half-inhibitory concentration (IC50) is 6.8 nM in the assay on MRC5 [9]; < 3.9 nM in the assay on MRC5 [10]; 29 nM in the assay on A549 [12]; 21.6 nM in the assay on MRC5 [13]; < 3.9 nM in assay [14]; 6.8 nM with A549 [3]. The IC50 in assay [22] is < 3.9 nM; with A549 [24], < 3.9 nM; in the assay on A549 [25], > 1000 nM; with MRC5 [4] it was 6.3 nM; in the assay with A549 [27] it was 3.9 nM; in assay [28] it was 17 nM. For the same compound, the values for the IC50 (in [8]; in assay [33]; with MRC5 [34]) were 6.9 nM, 18 nM and < 3.9 nM, respectively. In addition, the CI was 2.73 in the assay with MRC5 [11]; 8.15 with MRC5 [16]; 2.06 in the assay with MRC5 [19]; >1 in the assay on A549 [20]; >1 in the assay on A549 [21]; <1 in the assay with A549 [23]. Further, the CI in the assay on MRC5 [31] was 7.88. Moreover, the Inhibition_index is listed as 1.67 with A549 [15], 1.71 with A549 [18], 4.22 with A549 [26] and 5.76 in the assay with A549 [35]. The Ratio with A549 [17] was found to be 0.6; in the assay with A549 [29] it was 0.65; with A549 [32], 0.1. Besides, the inhibition result with A549 [3], in the assay with MRC5 [4] and with T-24 [7] was “Dose-dependent effect” each time. Also, the outcome in the assay on A549 [30] was inactive.

For the compound `O=C(O)CCCCC1CCSS1` (stereo not drawn) [LIPOIC ACID, ALPHA], the Inhibition_index in the assay on A549 [36] was found to be 488.47; in the assay with A549 [37], 1572.29; with A549 [39], 1243.87. For the same compound, the figures for the Ratio with A549 [38], in the assay with A549 [41] and in the assay on A549 [42] were 0.9, 0.85 and 0.8, respectively. For the same compound, the inhibition result in the assay with A549 [3], in the assay on MRC5 [4] and in the assay on T-24 [7] was “Dose-dependent effect” in each case. The half-maximal inhibitory concentration (IC50) (with A549 [3]; with MRC5 [4]; in [8]) was > 100000 nM throughout. Moreover, the outcome in the assay on A549 [40] was Active.
